Assay results as given in ChEMBL document CHEMBL1138598, “Interactions of curcumin with the PfATP6 model and the implications for its antimalarial mechanism” (Bioorg Med Chem Lett, 2009).

How the values were obtained:
[1] = Binding affinity to Plasmodium falciparum ATPase6
[2] = tested on: Plasmodium falciparum; test: Antimalarial activity against chloroquine-resistant Plasmodium falciparum FCK by [3H]hypoxanthine uptake; assay type: functional, organism-based
[3] = Inhibition of Plasmodium falciparum ATPase6 expressed in Xenopus oocytes; assay type: cell-based; conditions: oocyte

SMILES | Kd [1] [nM] | IC50 [2] [µM] | Kd [3] [nM]
COc1cc(/C=C/C(=O)CC(=O)/C=C/c2ccc(O)c(OC)c2)ccc1O (stereo in doubt; form 1) [CURCUMIN] | 1150 | – | –
COc1cc(/C=C/C(=O)CC(=O)/C=C/c2ccc(O)c(OC)c2)ccc1O (stereo in doubt; form 2) [CURCUMIN] | 2450 | – | –
C[C@@H]1CC[C@H]2[C@@H](C)C(=O)O[C@@H]3O[C@@]4(C)CC[C@@H]1[C@]32OO4 [ARTEMISININ] | – | 0.045 | 150
COc1cc(/C=C/C(=O)CC(=O)/C=C/c2ccc(O)c(OC)c2)ccc1O [CURCUMIN] | – | 15 | –
